Earlier results as cited in US5916587A, “Transdermal delivery matrix for piroxicam” (Sunkyong Industries Co., Ltd., priority 1992, dated 1999).

What was measured:
[1] = test system: prostaglandin biosynthesis
[2] = oral use
[3] = orally administered

Compound | potency as an inhibitor of prostaglandin biosynthesis in vitro ([1]; compared with indomethacin) | side effects [2] | drug excreted in the urine unchanged [3] | metabolism [3] | fold less active than piroxicam inhibiting prostaglandin synthesis ([1]; metabolite vs piroxicam)
CN1C(C(=O)Nc2ccccn2)=C(O)c2ccccc2S1(=O)=O [Piroxicam, piroxicam] | about equal in potency to indomethacin | gastro-intestinal trouble, peptic ulcer | Less than 5% | metabolized at the first pass route | 
Nc1nc2cccc(-c3ccc(CN4CCS(=O)(=O)CC4)cc3)n2n1 [metabolite] |  |  |  |  | at least 1000 times
